# From US20090285898A1, “COMBINATION OF DEHYDROEPIANDROSTERONE OR DEHYDROEPIANDROSTERONE-SULFATE WITH AN ANTICHOLINERGIC BRONCHODILATOR FOR TREATMENT OF ASTHMA OR CHRONIC OBSTRUCTIVE PULMONARY DISEASE” (priority 2003, published 2009)
# “And” between values parts separate entries of the source, which are not always exact repeats. Identical values can stand only once.
# What was measured:
# [1] = Particle size after jet milling or spray drying (Malvern Mastersizer X, light microscope); type: physicochemical; conditions: two batches
# Description: Approximately 1 g sample was passed through the jet mill, once, and approximately 2 g sample were passed through the jet mill twice. […] The resulting solution was sonicated for 3 minutes and appeared fully dispersed. The dispersed solutions were tested on a Malvern Mastersizer X with a small volume sampler (SVS) attachment. One sample of dispersed material was tested 5 times. The median particle size or D (v, 0.5) of unmilled material was 52.56 μm and the % RSD (relative standard deviation) was 7.61 for the 5 values. The D (v, 0.5) for a single pass through the jet mill was 3.90 μm and the % RSD was 1.27, and the D (v, 0.5) from a double pass through the jet mill 3.25 μm and the % RSD was 3.10.
# The solution was spray-dried with a B-191 Mini Spray-Drier (Buchi, Flawil, Switzerland) with an inlet temperature of 55° C., outlet temperature of 40° C., at 100% aspirator, at 10% pump, nitrogen flow at 40 mbar and spray flow at 600 units. The spray-dried product was suspended in hexane and Span85 surfactant added to reduce agglomeration. The dispersions were sonicated with cooling for 3-5 minutes for complete dispersion and the dispersed solutions tested on a Malvern Mastersizer X with a Small Volume Sampler (SVS) attachment. […] Visual examination by light microscope of the dispersions of each batch confirmed that spray drying produced small respirable size particles. […]
# [2] = system: Human ASM cells; experiment: EGF induced ASM proliferation ([3H]-thymidine incorporation); type: cell-based; conditions: for effect on EGF response (ASM proliferation): Mch 10 μM, atropine alone, DHEA-S in the presence or absence of Mch and atropine
# Description: Human ASM cells were obtained from the distal trachea of transplant donors in compliance with the University of Pennsylvania's Institutional Review Board. Distal trachealis was dissected free of connective tissue and enzymatically digested to yield approximately 1×10^4 human ASM cells. These cells were then grown to confluence in 10% fetal bovine serum and quiesced in serum-free media containing 1% bovine serum albumin for 24 hours. […] After the initial incubation, cells were then exposed to [^3H]-thymidine and DNA synthesis was measured over 24 hours using thymidine incorporation. The cells were scraped and placed on filters which were then counted using a beta counter. All experiments were repeated in a minimum of three human ASM cell lines. All conditions per experiment were run with six replicates.
# [3] = Nebulizer studies (Pari LC Plus, by-pass collector and impactor); conditions: 0.12% NaCl
# Description: The nebulizer is filled with 5 mL of solution and nebulization is continued until the output became visually insignificant (4½ to 5 min.). Nebulizer solutions are tested using a California Instruments AS-6 6-stage impactor with a USP throat. The impactor is run at 30 L/min for 8 s to collect a sample following one minute of nebulization time. At all other times during the experiment, the aerosol is drawn through the by-pass collector at approximately 33 L/min. The collection apparatus, nebulizer, and impactor are rinsed with mobile phase and assayed by HPLC. […] This volume is selected as the practical upper limit for use in a clinical study.
# [4] = Solubility of DHEA-S in NaCl solutions; type: physicochemical; conditions: 20 mM Na+; Ksp 1316 mM^2; 15° C.
# Excerpt: Inhalation of pure water can produce a cough stimulus. […] The temperature effect is weaker at high NaCl concentrations.
# [5] = Short-term solution stability of DHEA-S nebulizer formulation; type: physicochemical; conditions: 10 mg/mL in 0.12% NaCl
# Description: Aliquots of this solution are filled into clear glass vials and stored at RT (24-26° C.) and at 40° C. The samples are checked daily for DHEA-S content, DHEA content, and appearance. For each time point, duplicate samples are withdrawn and diluted from each vial. […] The study is stopped on day three. […] The solution should easily be stable for the day of reconstitution in a clinical trial. The following section describes the aerosol properties of this formulation.
# [6] = system: HT-29 SF cells; experiment: DHEA effect on cell growth; type: cell-based, human; conditions: 0, 12.5, 25, 50, or 200 μM; 0-72 hours
# [7] = system: HT-29 SF cells; experiment: Reversal of DHEA effect on cell cycle; type: cell-based, human; conditions: 25 FM DHEA; supplemented medium; 48 and 72 hours
molecule,measurement,setting,value
C[C@]12CC[C@H](OS(=O)(=O)[O-])CC1=CC[C@@H]1[C@@H]2CC[C@]2(C)C(=O)CC[C@@H]12.[Na+] [Anhydrous DHEA-S],mean particle size of spray dried material,[1]; Malvern Mastersizer X,5.07±0.70 μm and 6.66±0.91 μm
same,mean particle size of spray dried material,[1]; visual examination by light microscope,2.4 μm and 2.0 μm
"C[C@]12CC[C@H](OS(=O)(=O)[O-])CC1=CC[C@@H]1[C@@H]2CC[C@]2(C)C(=O)CC[C@@H]12.[Na+] [DHEA-S, sodium dehydroepiandrostenone sulfate]",effect on EGF response (ASM proliferation),[2],attenuate the EGF response
same,highest solution concentration for clinical trial formulation (no precipitate during nebulization),[3],approximately 7.5 mg/mL
same,calculated DHEA-S solution concentration,[4],27.5 mM
same,solution appearance on storage,[5]; 40° C.,became cloudy after two days of storage
same,solution appearance on storage,[5]; RT (24-26° C.),slight precipitate is observed on the third day
CN1[C@@H]2CC[C@H]1C[C@@H](OC(=O)C(CO)c1ccccc1)C2 (some centres unmarked) [atropine],effect on Mch augmentation of EGF response,[2]; EGF plus 10 μM Mch,reverse the effects of Mch
same,effect on EGF response (ASM proliferation),[2],no effect on EGF response
"C[C@]12CC[C@H](O)CC1=CC[C@@H]1[C@@H]2CC[C@]2(C)C(=O)CC[C@@H]12 [DHEA, 3β-hydroxyandrost-5-en-17-one]",effect on growth of HT-29 SF cells,[6],time- and dose-dependent inhibition of growth
"CC(C)CCC[C@@H](C)[C@H]1CC[C@H]2[C@@H]3CC=C4C[C@@H](O)CC[C@]4(C)[C@H]3CC[C@]12C [CH, cholesterol]",prevention of DHEA-induced S phase depletion (G1 arrest),[7],very little effect at 48 hours and no effect at 72 hours
CC(=O)OC(C)C[N+](C)(C)C (centres unmarked),effect on EGF response (ASM proliferation),[2],further augmented
"EGF: growth factor used to induce DNA synthesis in human ASM cells (NSDSECPLSHDGYCLHDGVCMYIEALDKYACNCVVGYIGERCQYRDLKWWELR; Epidermal growth factor; UniProt P01133 971-1023, looked up)",increase in ASM proliferation,"[2]; EGF (1 ng/ml), thymidine incorporation",8 fold
"C[C@@](O)(CCO)CC(=O)O [MVA, mevalonic acid]",prevention of DHEA-induced S phase depletion (G1 arrest),[7],partially prevented this effect in the initial 48 hours but not after 72 hours
